Reference: patent publication US6525059B1, “Substituted pyrazoles as p38 kinase inhibitors” (G. D. Searle & Company, priority 1998, dated 2003)
Structures can show the parent of a compound that is named as a salt. Where two headings read alike, the source gives them in different places.

Experiments:
human TNF = assay: TNF inhibition: human whole blood assay; format: cell-based; conditions: Homo sapiens, TNF production, LPS-stimulated human whole blood
Protocol: Human peripheral blood is obtained in heparinized tubes. A 190 μL aliquot of blood is placed in each well of a 96 well u-bottom plate. […] After one hour of incubation at 37° C., […] of lipopolysaccharide (Salmonella typhosa, Sigma) in phosphate buffered saline is added resulting in a final concentration of […]. After four to five hours of incubation at 37° C., the supernatants are harvested and assayed at 1:10 or 1:20 dilutions for human TNF using ELISA.

TNF-α = assay: Rat assay: LPS-challenged rats, serum TNF-α by ELISA; format: in vivo; conditions: for inhibition in vivo at 5 mg/kg / inhibition in vivo at 1 mg/kg: Rattus norvegicus, po; for ratLPS/% Inh @20.0 (mg/kg): 20.0 mg/kg oral gavage; for inhibition in vivo at 1 mg/kg: 1.0 mg/kg oral gavage, read-out: ratLPS/% Inh @1.0 (mg/kg)
human p38 kinase alpha = target: T1, human p38 kinase alpha (Homo sapiens, UniProt Q16539); assay: p38 kinase in vitro assay, phosphorylation of biotinylated PHAS-I with gamma 32P-ATP; format: biochemical
T1 construct: The coding region of the human p38a cDNA was obtained by PCR-amplification from RNA isolated from the human monocyte cell line THP.1; GST (N); made in house; host or cells: E. coli DH10B
T1 sequence (Q16539 whole entry): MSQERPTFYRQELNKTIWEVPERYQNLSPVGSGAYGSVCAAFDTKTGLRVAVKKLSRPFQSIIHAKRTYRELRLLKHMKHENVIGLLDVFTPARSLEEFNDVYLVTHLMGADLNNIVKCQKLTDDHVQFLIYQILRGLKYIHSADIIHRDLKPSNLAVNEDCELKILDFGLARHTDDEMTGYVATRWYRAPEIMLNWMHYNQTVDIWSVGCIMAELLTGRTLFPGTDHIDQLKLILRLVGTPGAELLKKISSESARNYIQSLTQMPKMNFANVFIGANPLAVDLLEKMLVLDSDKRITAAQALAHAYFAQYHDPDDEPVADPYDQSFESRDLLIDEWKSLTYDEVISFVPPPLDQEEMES
Summary of the method: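 MKK6-activated human p38α phosphorylates biotinylated PHAS-I with γ-32P-ATP in 25 mM HEPES pH 7.5, 10 mM Mg acetate, 50 μM unlabeled ATP, 1% DMSO, 30 °C for 1 h or overnight. Compounds at 100–0.001 μM (10-fold steps, triplicate); substrate captured on streptavidin filter plates and counted by scintillation.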

[1] = read-out: Human Whole Blood IC50
[2] = 5 mpk oral gavage, 4 h before LPS challenge, read-out: Rat LPS Model % Inhibition @ dose @ predose time
[3] = read-out: P38 alpha kinase IC50
[4] = 5.0 mg/kg oral gavage, 4 hours before LPS challenge, read-out: ratLPS/% Inh @5.0 (mg/kg)

In the case of `CC(C)(O)CCCc1[nH]nc(-c2ccc(F)cc2)c1-c1ccncc1` [Example C-133], the IC50 (human TNF; [1]) is reported as 4540 nM, the inhibition in vivo at 5 mg/kg (TNF-α; [2]) is reported as 55% and the IC50 (human p38 kinase alpha; [3]) is reported as 160 nM.

Compound `CC(=O)N1CCCC(c2[nH]nc(-c3ccc(F)cc3)c2-c2ccncc2)C1` (stereo not shown) [Example C-138] has an IC50 (human TNF; [1]) of 680 nM, an inhibition in vivo at 5 mg/kg (TNF-α; [2]) of 26% and an IC50 (human p38 kinase alpha; [3]) of 280 nM.

`COCC(=O)N1CCCC(c2[nH]nc(-c3ccc(F)cc3)c2-c2ccncc2)C1` (stereo not shown) [Example C-139] gave an IC50 (human TNF; [1]) of 3660 nM, an inhibition in vivo at 5 mg/kg (TNF-α; [2]) of 46% and an IC50 (human p38 kinase alpha; [3]) of 200 nM.

In the case of `COCC(=O)N1CCC(c2[nH]nc(-c3ccc(Cl)cc3)c2-c2ccncn2)CC1` [Example D-3, N-(2-Methoxyacetyl)-5-(4-piperidyl)-4-(4-pyrimidyl)-3-(4-chlorophenyl)pyrazole (fumarate salt)], the IC50 (human TNF; read-out: HWB IC50) is reported as 460 nM, the “ratLPS/% Inh @20.0 (mg/kg)” value (TNF-α; 4 hours before LPS challenge) is reported as 91.0% and the inhibition in vivo at 1 mg/kg (TNF-α; 4 hours before LPS challenge) is reported as 69%. The inhibition in vivo at 5 mg/kg (TNF-α; [4]) was 88% and the IC50 (human p38 kinase alpha; read-out: p38 alpha IC50) was 95 nM.

For `CC(C)(O)C(=O)N1CCC(c2[nH]nc(-c3ccc(Cl)cc3)c2-c2ccncn2)CC1` [Example D-4, hydrochloride], the IC50 (human TNF; read-out: HWB IC50) was 1550 nM, the “ratLPS/% Inh @20.0 (mg/kg)” value (TNF-α; 4 hours before LPS challenge) was 99.0% and the inhibition in vivo at 1 mg/kg (TNF-α; 4 hours before LPS challenge) was 42.3%. The inhibition in vivo at 5 mg/kg (TNF-α; [4]) was 83% and the IC50 (human p38 kinase alpha; read-out: p38 alpha IC50) was 910 nM.

For `C[C@H](O)C(=O)N1CCC(c2[nH]nc(-c3ccc(Cl)cc3)c2-c2ccncn2)CC1` [Example D-5, hydrochloride], the IC50 (human TNF; read-out: HWB IC50) was 4090 nM, the “ratLPS/% Inh @20.0 (mg/kg)” value (TNF-α; 4 hours before LPS challenge) was 83.0% and the inhibition in vivo at 1 mg/kg (TNF-α; 4 hours before LPS challenge) was 65%. For the same compound, the inhibition in vivo at 5 mg/kg (TNF-α; [4]) was 78.5% and the IC50 (human p38 kinase alpha; read-out: p38 alpha IC50) was 140 nM.

`C[C@@H](O)C(=O)N1CCC(c2[nH]nc(-c3ccc(Cl)cc3)c2-c2ccncn2)CC1` [Example D-6, hydrochloride] was tested, and the IC50 (human TNF; read-out: HWB IC50) was 1330 nM, the “ratLPS/% Inh @20.0 (mg/kg)” value (TNF-α; 4 hours before LPS challenge) was 100% and the inhibition in vivo at 1 mg/kg (TNF-α; 4 hours before LPS challenge) was 82%. It also gave an inhibition in vivo at 5 mg/kg (TNF-α; [4]) of 96% and an IC50 (human p38 kinase alpha; read-out: p38 alpha IC50) of 83 nM.

Work on `O=C([C@H](O)c1ccccc1)N1CCC(c2[nH]nc(-c3ccc(Cl)cc3)c2-c2ccncn2)CC1` [Example D-7, (R)-N-(2-Hydroxy-2-phenylacetyl)-5-(4-piperidyl)-4-(4-pyrimidyl)-3-(4-chlorophenyl)pyrazole] yielded an IC50 (human TNF; read-out: HWB IC50) of over 25000 nM, an inhibition in vivo at 5 mg/kg (TNF-α; [4]) of 0% and an IC50 (human p38 kinase alpha; read-out: p38 alpha IC50) of 440 nM.

`O=C(CO)N1CCC(c2[nH]nc(-c3ccc(F)cc3)c2-c2ccncn2)CC1` [Example D-8] showed an IC50 (human TNF; read-out: HWB IC50) of 1300 nM, an inhibition in vivo at 1 mg/kg (TNF-α; 4 hours before LPS challenge) of 65% and an inhibition in vivo at 5 mg/kg (TNF-α; [4]) of 85%. For the same compound, the IC50 (human p38 kinase alpha; read-out: p38 alpha IC50) was 180 nM.

With `O=C(CO)N1CCC(c2[nH]nc(-c3ccc(C(F)(F)F)cc3)c2-c2ccncn2)CC1` [Example D-9] the IC50 (human TNF; read-out: HWB IC50) was 15800 nM, the inhibition in vivo at 1 mg/kg (TNF-α; 4 hours before LPS challenge) was 5% and the inhibition in vivo at 5 mg/kg (TNF-α; [4]) was 86%. The IC50 (human p38 kinase alpha; read-out: p38 alpha IC50) was 1630 nM.

Compound `O=C(CO)N1CCC(c2[nH]nc(-c3ccc(OC(F)(F)F)cc3)c2-c2ccncn2)CC1` [Example D-10, N-(2-Hydroxyacetyl)-5-(4-piperidyl)-4-(4-pyrimidyl)-3-(4-trifluoromethoxyphenyl)pyrazole] has an IC50 (human TNF; read-out: HWB IC50) of 14800 nM, an inhibition in vivo at 5 mg/kg (TNF-α; [4]) of 80% and an IC50 (human p38 kinase alpha; read-out: p38 alpha IC50) of 3950 nM.

With `O=C(CO)N1CCC(c2[nH]nc(-c3cccc(Cl)c3)c2-c2ccncn2)CC1` [Example D-11, N-(2-Hydroxyacetyl)-5-(4-piperidyl)-4-(4-pyrimidyl)-3-(3-chlorophenyl)pyrazole] the IC50 (human TNF; read-out: HWB IC50) was 1500 nM, the inhibition in vivo at 1 mg/kg (TNF-α; 4 hours before LPS challenge) was 43% and the inhibition in vivo at 5 mg/kg (TNF-α; [4]) was 86%. The IC50 (human p38 kinase alpha; read-out: p38 alpha IC50) was 160 nM.

In the case of `O=C(CO)N1CCC(c2[nH]nc(-c3cccc(F)c3)c2-c2ccncn2)CC1` [Example D-12, N4(2Hydroxyacetyl)-5-(4-piperidyl)-4-(4-pyrimidyl)-3-(3-fluorophenyl)pyrazole], the IC50 (human TNF; read-out: HWB IC50) is reported as 7060 nM, the inhibition in vivo at 1 mg/kg (TNF-α; 4 hours before LPS challenge) is reported as 71% and the inhibition in vivo at 5 mg/kg (TNF-α; [4]) is reported as 91%. For the same compound, the IC50 (human p38 kinase alpha; read-out: p38 alpha IC50) was 820 nM.

With `O=C(CO)N1CCC(c2[nH]nc(-c3cccc(C(F)(F)F)c3)c2-c2ccncn2)CC1` [Example D-13] the IC50 (human TNF; read-out: HWB IC50) was 8360 nM, the inhibition in vivo at 1 mg/kg (TNF-α; 4 hours before LPS challenge) was 53% and the inhibition in vivo at 5 mg/kg (TNF-α; [4]) was 87%. It also gave an IC50 (human p38 kinase alpha; read-out: p38 alpha IC50) of 330 nM.
